Assay results taken from US20250289812A1, “COMPOUND FOR TREATING THROMBOTIC DISEASES” (SHANGHAI INSTITUTE OF MATERIA MEDICA, CHINESE ACADEMY OF …, priority 2020, published 2025).
pKd: −log10 of the molar value.

Tests used:
[1] = target: Src kinase SH3 domain protein (Homo sapiens (Human), UniProt P12931); assay: Surface plasmon resonance (SPR) determination of dissociation constants with SH3 protein; assay type: binding; conditions: SH3 protein coupled to CM5 chip
Procedure: 1. Experimental method: Surface plasmon resonance test was carried out on BIACORE T200 instrument (GE Company). Fresh purified grade Src kinase SH3 domain protein (concentration 2 mg/ml) was diluted to 0.1 mg/ml with 10 mM CH3COONa (pH 4.2) and then SH3 protein was coupled to the CM5 chip by standard amino coupling methods. The compounds of the invention were diluted in a gradient using a buffer solution (20 mM Tris-HCl, PH 8.0, 100 mM NaCl) for 60 seconds and dissociated for 120 seconds at a flow rate of […], respectively. The changes in response values over time were recorded and analyzed by the BIA Evaluation Software (GE Healthcare) program to obtain the dissociation constants KD for the different compounds with SH3 protein.
2. Experimental results and conclusions: The dissociation constants KD of different compounds and SH3 protein were described in Table 2, and the surface plasmon resonance (SPR) experimental results of some compounds were shown in FIG. 1.

[2] = tested on: platelets on solid phase fibrinogen; assay: Effect of compound on platelet stretching on solid phase fibrinogen; assay type: cell-based; conditions: 1 h, washed platelets, incubated 60 min at 37° C., read-out: Concentration range for compounds that inhibit platelet stretching on fibrinogen
Procedure: 1. Experimental method: Firstly, 50 μl fibrinogen (0.1M, diluted with pH 8.3 sodium bicarbonate, 20 μg/ml) was added to 96-well plate, and coated overnight at 4° C. After being washed by PBS for 3 times in the morning, sealed with bovine serum albumin (20 mg/ml) at 37° C. for 60 min, then 100 μl of washed platelet suspension was taken, and added into compounds in each group to make the final concentration 250 μM, and incubated at 37° C. for 60 min. 50 μl of incubated platelets were added to 96-well plate, adhered in a temperature box at 37° C. for 60 min, unadhered platelets were removed by PBS washing for 3 times, and adhered platelets were stably fixed with 4% paraformaldehyde, and washed with PBS for 3 times. Then the platelet membrane was perforated with 0.5% Triton X-100, and then the platelet was stained with 0.5 μg/ml phalloidin-rhodamine for 60 min at 37° C. and washed 3 times (10 min each) with PBS.
2. Experimental results and conclusions: The concentration of different compounds on platelet stretching on fibrinogen was shown in Table 3, and the inhibitory effect of some compounds on platelet stretching was shown in FIG. 2.

Chain of Src kinase SH3 domain protein (P12931 whole entry, looked up, the tested form may be a part): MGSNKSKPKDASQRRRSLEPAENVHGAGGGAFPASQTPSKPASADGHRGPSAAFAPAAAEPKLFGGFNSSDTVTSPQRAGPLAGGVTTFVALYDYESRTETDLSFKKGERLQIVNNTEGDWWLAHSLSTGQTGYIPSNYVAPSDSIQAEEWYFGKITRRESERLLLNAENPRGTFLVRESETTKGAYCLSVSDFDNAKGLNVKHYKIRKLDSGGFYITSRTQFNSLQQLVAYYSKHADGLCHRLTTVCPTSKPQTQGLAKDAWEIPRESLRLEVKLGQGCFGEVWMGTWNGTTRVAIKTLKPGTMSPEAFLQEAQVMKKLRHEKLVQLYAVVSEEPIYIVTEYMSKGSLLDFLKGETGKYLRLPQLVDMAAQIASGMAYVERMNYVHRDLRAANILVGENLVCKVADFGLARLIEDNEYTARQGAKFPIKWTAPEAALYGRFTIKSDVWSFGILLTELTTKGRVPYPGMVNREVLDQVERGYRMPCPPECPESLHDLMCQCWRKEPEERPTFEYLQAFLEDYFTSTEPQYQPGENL

SMILES | pKd [1] | minimal effective concentration [2] [µM]
CCOC(=O)c1c(CNC(=N)N)sc2cc(-c3cccc4ccccc34)c(C3CCCC3)cc12 [SYY-C121] | 5.00 to 6.00 | 100 to 250
CCOC(=O)c1c(CNC(=N)N)sc2cc(-c3cccc4ccccc34)c(C3=CCCC3)cc12 [SYY-C123] | 4.00 to 5.00 | 100 to 250
CCOC(=O)c1c(CNC(=N)N)sc2cc(-c3cccc4ccccc34)c(Oc3ccccc3)cc12 [SYY-C128] | 4.00 to 5.00 | 100 to 250
CCOC(=O)c1c(CNC(=N)N)sc2cc(-c3cccc4ccccc34)c(Oc3ccncc3)cc12 [SYY-C129] | > 6.00 | 10 to 100
CCOC(=O)c1c(CNC(=N)N)sc2cc(-c3cccc4ccccc34)c(C3=CCCc4ccccc43)cc12 [SYY-C130] | 4.00 to 5.00 | 100 to 250
CCOC(=O)c1c(CNC(=N)N)sc2cc(-c3cccc4ccccc34)c(C3CCCc4ccccc43)cc12 (stereo not drawn) [SYY-C131] | 4.00 to 5.00 | 100 to 250

Now from value to compound, other results behind:

pKd [1] | SMILES | minimal effective concentration [2] [µM]
> 6.00 | CCOC(=O)c1c(CNC(=N)N)n(C)c2cc(C3CC3)c(-c3cccc4ccccc34)cc12 [SYY-C120] | 10 to 100
> 6.00 | CCOC(=O)c1c(CNC(=N)N)sc2cc(-c3cccc4ccccc34)c(C3CCCCC3)cc12 [SYY-C122] | 10 to 100
> 6.00 | CCOC(=O)c1c(CNC(=N)N)sc2cc(-c3cccc4ccccc34)c(C3=CCCCC3)cc12 [SYY-C124] | 10 to 100
> 6.00 | CCOC(=O)c1c(CNC(=N)N)sc2cc(-c3cccc4ccccc34)c(OC)cc12 [SYY-C125] | 10 to 100
> 6.00 | CCOC(=O)c1c(CNC(=N)N)sc2cc(-c3cccc4ccccc34)c(OC3CCCC3)cc12 [SYY-C126] | 10 to 100
> 6.00 | CCOC(=O)c1c(CNC(=N)N)sc2cc(-c3cccc4ccccc34)c(OC3CCCCC3)cc12 [SYY-C127] | 10 to 100
